Measured values: patent publication US11166924B2, “N-methyl-d-aspartate receptor allosteric modulators and methods for their use” (Qingdao Primedicine Pharmaceutical Company, Ltd., priority 2016, dated 2021)

Tests used:
GluN1^L135Q/GluN2A = target: T1, GluN1^L135Q/GluN2A (Rattus norvegicus, UniProt P35439+Q00959, L135Q); assay: Patch clamp in HEK293 cells expressing mutant GluN1 L135Q/GluN2A; format: cell-based
T1 construct: expressed in transfected cells; host or cells: HEK293
Method: (§1) Whole cell patch-clamp recordings were performed under voltage-clamp mode using an Axopatch 200B or 1D patch-clamp amplifier (Molecular Devices). Whole-cell currents were recorded at a holding potential of −60 mV unless indicated elsewhere, and signals were filtered at 2 kHz, digitized at 10 kHz (Digidata 1322A). Recording pipettes (3-5 MΩ) were filled with intracellular solution containing (mM): CsCl 140, HEPES 10, Mg-ATP 4, QX-314 5, pH 7.20; osmolarity, 290-295 mOsm. BAPTA (10 mM) was added in the intracellular solution (unless otherwise specified). The coverslips were continuously superfused with extracellular solution containing (mM): NaCl 140, KCl 5.4, HEPES 10, CaCl2 1.3, glucose 20, pH 7.4; osmolarity, 305-315 mOsm. NMDA-induced currents were applied by NMDA through perfusion fast-step (Warner Instruments). With perfusion fast-step system, NMDA application was achieved by using a two-square barrel glass tubing and depending on the age of the cultured neurons, CNQX (10 μM), TTX (0.5 μM) or BIC (10 μM) were added in the extracellular solution to minimize the activation of ionotropic glutamate receptors and voltage-gated sodium channels, respectively. All experiments were performed at room temperature. Recordings from at least six HEK293 cells/neurons were performed for all active compounds. […]

GluN1^R115E/GluN2A = target: T2, GluN1^R115E/GluN2A (Rattus norvegicus, UniProt P35439+Q00959, R115E); assay: Patch clamp in HEK293 cells expressing mutant GluN1 R115E/GluN2A; format: cell-based
T2 construct: expressed in transfected cells; host or cells: HEK293
T2 sequence (Q00959 23-1464, other chains not shown): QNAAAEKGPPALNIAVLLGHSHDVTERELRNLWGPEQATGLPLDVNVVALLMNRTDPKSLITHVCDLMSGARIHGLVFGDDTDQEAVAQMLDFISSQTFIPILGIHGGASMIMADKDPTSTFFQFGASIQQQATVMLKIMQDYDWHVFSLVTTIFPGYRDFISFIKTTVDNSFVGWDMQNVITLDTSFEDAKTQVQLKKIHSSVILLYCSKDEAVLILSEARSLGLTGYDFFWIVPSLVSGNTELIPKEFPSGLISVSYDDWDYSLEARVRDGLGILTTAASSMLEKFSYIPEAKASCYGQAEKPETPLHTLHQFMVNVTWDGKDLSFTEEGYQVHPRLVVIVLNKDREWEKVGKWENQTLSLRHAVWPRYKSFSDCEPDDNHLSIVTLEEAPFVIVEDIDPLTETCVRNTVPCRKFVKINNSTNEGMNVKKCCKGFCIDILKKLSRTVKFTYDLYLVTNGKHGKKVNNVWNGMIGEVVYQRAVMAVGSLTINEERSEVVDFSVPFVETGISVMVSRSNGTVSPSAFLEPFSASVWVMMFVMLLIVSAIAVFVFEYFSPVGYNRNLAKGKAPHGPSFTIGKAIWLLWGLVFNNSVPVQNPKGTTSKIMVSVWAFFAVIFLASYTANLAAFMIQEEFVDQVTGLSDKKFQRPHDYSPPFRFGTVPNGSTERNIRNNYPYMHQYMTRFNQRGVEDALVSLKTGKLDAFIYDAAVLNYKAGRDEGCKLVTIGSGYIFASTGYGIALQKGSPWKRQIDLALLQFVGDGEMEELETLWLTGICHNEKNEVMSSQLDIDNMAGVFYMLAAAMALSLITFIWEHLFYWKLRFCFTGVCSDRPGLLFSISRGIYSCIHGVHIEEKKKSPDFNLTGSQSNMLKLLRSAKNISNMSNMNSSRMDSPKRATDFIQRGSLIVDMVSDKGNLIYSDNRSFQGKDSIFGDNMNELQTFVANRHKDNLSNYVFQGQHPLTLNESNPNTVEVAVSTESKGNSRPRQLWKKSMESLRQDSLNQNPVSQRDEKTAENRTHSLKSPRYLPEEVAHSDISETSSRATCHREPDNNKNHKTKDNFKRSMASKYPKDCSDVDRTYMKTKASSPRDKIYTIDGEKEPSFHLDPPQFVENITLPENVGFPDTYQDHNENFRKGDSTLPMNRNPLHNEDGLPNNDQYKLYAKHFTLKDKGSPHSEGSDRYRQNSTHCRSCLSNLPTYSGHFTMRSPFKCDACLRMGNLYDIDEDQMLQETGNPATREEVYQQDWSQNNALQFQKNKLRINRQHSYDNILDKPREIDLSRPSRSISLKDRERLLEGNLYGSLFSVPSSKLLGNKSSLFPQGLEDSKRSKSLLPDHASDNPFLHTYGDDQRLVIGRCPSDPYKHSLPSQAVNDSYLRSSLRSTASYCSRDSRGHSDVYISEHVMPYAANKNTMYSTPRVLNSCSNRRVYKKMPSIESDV
Method: as §1

GluN1/GluN2A^A108G = target: T3, GluN1/GluN2A^A108G (Rattus norvegicus, UniProt P35439+Q00959, A108G); assay: Patch clamp in HEK293 cells expressing mutant GluN1/GluN2A A108G; format: cell-based
T3 construct: expressed in transfected cells; host or cells: HEK293
T3 sequence (Q00959 23-1464 A108G, other chains not shown): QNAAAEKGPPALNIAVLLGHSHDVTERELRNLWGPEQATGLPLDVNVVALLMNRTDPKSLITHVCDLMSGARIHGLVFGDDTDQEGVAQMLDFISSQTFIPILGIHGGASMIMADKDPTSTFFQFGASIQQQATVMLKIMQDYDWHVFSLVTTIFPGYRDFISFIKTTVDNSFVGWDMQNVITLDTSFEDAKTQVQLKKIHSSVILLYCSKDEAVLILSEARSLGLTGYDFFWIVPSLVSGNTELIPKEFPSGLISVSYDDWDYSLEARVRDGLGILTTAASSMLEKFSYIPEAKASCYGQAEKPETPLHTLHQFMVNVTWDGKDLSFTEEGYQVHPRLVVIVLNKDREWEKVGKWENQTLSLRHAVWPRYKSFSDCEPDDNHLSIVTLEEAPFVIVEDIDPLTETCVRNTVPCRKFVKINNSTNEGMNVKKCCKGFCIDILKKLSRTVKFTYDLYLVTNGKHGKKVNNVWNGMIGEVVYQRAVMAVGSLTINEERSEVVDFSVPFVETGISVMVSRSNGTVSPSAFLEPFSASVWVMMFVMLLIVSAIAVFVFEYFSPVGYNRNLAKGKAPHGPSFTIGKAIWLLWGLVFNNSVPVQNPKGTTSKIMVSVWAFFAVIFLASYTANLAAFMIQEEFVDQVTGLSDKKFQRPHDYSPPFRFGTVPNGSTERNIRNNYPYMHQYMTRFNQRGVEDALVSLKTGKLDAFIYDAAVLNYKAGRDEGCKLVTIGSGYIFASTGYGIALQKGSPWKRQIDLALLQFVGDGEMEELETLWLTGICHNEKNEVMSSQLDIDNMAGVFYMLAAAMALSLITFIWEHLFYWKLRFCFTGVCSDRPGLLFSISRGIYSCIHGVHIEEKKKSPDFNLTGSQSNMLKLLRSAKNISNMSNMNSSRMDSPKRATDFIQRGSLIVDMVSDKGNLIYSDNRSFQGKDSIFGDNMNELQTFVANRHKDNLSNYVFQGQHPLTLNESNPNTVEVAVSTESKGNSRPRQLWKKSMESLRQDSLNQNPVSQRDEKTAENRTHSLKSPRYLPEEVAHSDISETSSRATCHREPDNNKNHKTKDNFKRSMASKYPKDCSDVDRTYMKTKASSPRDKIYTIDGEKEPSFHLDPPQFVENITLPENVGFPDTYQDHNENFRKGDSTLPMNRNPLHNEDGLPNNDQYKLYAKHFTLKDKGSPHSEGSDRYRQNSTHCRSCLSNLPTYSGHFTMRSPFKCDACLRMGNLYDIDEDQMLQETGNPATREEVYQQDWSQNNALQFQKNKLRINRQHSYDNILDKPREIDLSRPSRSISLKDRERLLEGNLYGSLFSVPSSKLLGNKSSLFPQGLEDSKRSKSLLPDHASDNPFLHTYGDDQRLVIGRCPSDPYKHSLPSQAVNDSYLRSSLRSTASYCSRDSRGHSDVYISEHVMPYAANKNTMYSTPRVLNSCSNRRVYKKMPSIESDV
Method: as §1

GluN1/GluN2A^M112I = target: T4, GluN1/GluN2A^M112I (Rattus norvegicus, UniProt P35439+Q00959, M112I); assay: Patch clamp in HEK293 cells expressing mutant GluN1/GluN2A M112I; format: cell-based
T4 construct: expressed in transfected cells; host or cells: HEK293
Method: as §1

[1] = test system: CREB phosphorylation (pCREB); assay: CREB phosphorylation (pCREB) immunoblotting in cortical neurons; format: cell-based, rat; conditions: presence or absence of ifenprodril; FIG. 15a
Method: Dissociated cultures of rat cortical neurons were prepared from 18 day-old Sprague Dawley rat embryos as described previously. To obtain mixed cortical cultures enriched with neurons, uridine (10 μM) and 5-Fluor-2′-deoxyuridine (10 μM) were added to the culture medium at 3 days in vitro (DIV) and maintained for 48 h to inhibit non-neuronal cell proliferation before the cultures were returned to the normal culture medium. Mature neurons (11-14 DIV) were used for experiments. Mouse cortical cultures were prepared using embryos at 18 days post-coitum from litters resulting from heterozygote GluN2A+/− or GluN2B+/− matings. To obtain homozygous and wild-type (WT) littermate control neuronal cultures, cortical cells from individual embryos were plated separately. Genotyping was performed as described previously using tail samples collected from each embryo. To induce neuronal apoptosis, cortical cultures were stimulated with NMDA (50 μM) and glycine (10 μM) for 20 min, or STS (100 nM) for 1 h in Mg2+-free extracellular solution (ECS) containing the following (in mM): 25 HEPES acid, 140 NaCl, 33 glucose, 5.4 KCl, and 1.3 CaCl2, with pH 7.35 and osmolarity 320-330 mOsm. […]

T1 sequence (Q00959 23-1464, other chains not shown): as the sequence (Q00959 23-1464, other chains not shown) above

CCOc1cc(Cl)c(Cl)c(/C=N/NC(=O)c2ccccc2Br)c1O [Npam43, (E)-2-bromo-N′-(2,3-dichloro-5-ethoxy-6-hydroxybenzylidene)benzohydrazide]
Relative potentiation (GluN1^L135Q/GluN2A; Table 3): 47.1 ± 2.8% | Net Difference potentiation (GluN1^L135Q/GluN2A; normalized to wild-type): −77.5±2.12% | Relative potentiation (GluN1^R115E/GluN2A; Table 3): 255 ± 3.5% | Net Difference potentiation (GluN1^R115E/GluN2A; normalized to wild-type): +22.0 ± 0.40% | Relative potentiation (GluN1/GluN2A^A108G; Table 3): 210 ± 9.0% | Net Difference potentiation (GluN1/GluN2A^A108G; normalized to wild-type): +0.48 ± 0.01% | Relative potentiation (GluN1/GluN2A^M112I; Table 3): 255 ± 19% | Net Difference potentiation (GluN1/GluN2A^M112I; normalized to wild-type): +22.2 ± 0.94% | CREB phosphorylation (pCREB) [1]: increases
